Measured values reported in publication PMC7496768, “Understanding Substrate Selectivity of Phoslactomycin Polyketide Synthase by Using Reconstituted in Vitro Systems” (Chembiochem, 2020).

Biological target: T1, Npt (Streptomyces platensis, UniProt A0AAE6NLM9)
T1 construct: recombinant, expressed in E. coli BL21 (DE3), purified
T1 sequence (A0AAE6NLM9 1-219): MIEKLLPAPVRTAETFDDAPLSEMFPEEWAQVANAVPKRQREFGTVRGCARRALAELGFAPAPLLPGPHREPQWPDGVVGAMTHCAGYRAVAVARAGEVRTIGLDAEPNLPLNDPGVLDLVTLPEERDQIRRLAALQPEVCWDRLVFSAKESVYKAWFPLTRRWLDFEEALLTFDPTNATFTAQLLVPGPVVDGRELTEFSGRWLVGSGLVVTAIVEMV
Assay: phosphopantetheinylation of apo-ACPs
Type: biochemical
Settings: apo-Pn ACPs as acceptor

Structure (SMILES): CC(C)(COP(=O)(O)OP(=O)(O)OC[C@H]1O[C@@H](n2cnc3c(N)ncnc32)[C@H](O)[C@@H]1OP(=O)(O)O)[C@@H](O)C(=O)NCCC(=O)NCCS [CoA-SH]
- phosphopantetheinylation of apo-ACPs: Npt serves as a bona fide Ppant transferase that is able to activate apo‐Pn_ACPs
